Laboratory results as given in patent publication US8735406B2, “8-oxodihydropurine derivative” (Dainippon Sumitomo Pharma Co., Ltd., priority 2009, dated 2014).
Counter-ions that a name gives are not always drawn. Like-named read-outs stand apart in the source and are kept apart here.

Target: T1, FAAH (Rattus norvegicus, UniProt P97612)
T1 construct: Preparation of Rat Brain Membranes Preparations (FAAH Enzyme Solution); from tissue; host or cells: rat cerebrum (brain membrane preparation)
T1 sequence (P97612 1-579): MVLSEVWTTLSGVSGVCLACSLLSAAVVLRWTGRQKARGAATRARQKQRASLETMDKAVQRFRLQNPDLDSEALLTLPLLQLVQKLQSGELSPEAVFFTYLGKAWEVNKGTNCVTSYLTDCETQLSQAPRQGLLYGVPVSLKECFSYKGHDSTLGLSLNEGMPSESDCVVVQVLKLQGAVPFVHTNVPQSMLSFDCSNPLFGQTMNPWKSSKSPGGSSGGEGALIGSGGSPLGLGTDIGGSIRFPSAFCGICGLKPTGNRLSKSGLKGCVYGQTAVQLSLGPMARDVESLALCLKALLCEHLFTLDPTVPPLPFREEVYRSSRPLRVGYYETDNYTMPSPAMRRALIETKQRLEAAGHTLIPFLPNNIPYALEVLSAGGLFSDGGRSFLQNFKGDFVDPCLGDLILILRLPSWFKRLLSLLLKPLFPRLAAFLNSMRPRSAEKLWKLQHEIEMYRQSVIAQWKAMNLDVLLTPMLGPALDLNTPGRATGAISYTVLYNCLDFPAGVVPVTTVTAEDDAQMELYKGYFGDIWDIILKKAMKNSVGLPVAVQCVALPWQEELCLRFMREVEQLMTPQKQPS
Test: Determination of FAAH inhibitory activity in rat (rat brain membrane preparations, [3H]-anandamide hydrolysis)
Type: biochemical
Conditions: for IC50: read-out: FAAH Inhibition IC50
In short: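 Compounds tested from 0.1 nM to 1 μM to derive IC50 against FAAH hydrolysis in rat brain membrane preparations (100 μg/mL). A 10-min 37 °C preincubation was followed by 10 min with [3H]-anandamide (2 nM) mixed with 2 μM unlabelled anandamide. Radioactive ethanolamine was extracted into the water/methanol layer and counted.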

[1] = rat brain membrane preparations, test substance 0.1 nM to 1 μM
[2] = read-out: FAAH Inhibition, Inhibition Rate at 100 nM
[3] = rat brain membrane preparations, 100 nM test substance, read-out: FAAH Inhibition, Inhibition Rate at 100 nM
[4] = at 100 nM, rat brain membrane preparations, read-out: FAAH Inhibition Inhibition Rate at 100 nM
[5] = rat brain membrane preparations

IC50 [1] | inhibition at 0.1 µM [3] | inhibition at 0.1 µM [4] | IC50 [5] | SMILES | inhibition at 0.1 µM [2]
1 nM | 120% |  |  | COCCc1ncc2c(n1)n(C)c(=O)n2C(=O)N1CC(c2ccc(F)cc2)C1 [compound 390] | 
5 nM | 100% |  |  | COCCc1ncc2c(n1)n(C)c(=O)n2C(=O)N1CC(c2ccc(C(F)(F)F)cc2)C1 [Example 388, 2-(2-methoxyethyl)-9-methyl-7-({3-[4-(trifluoromethyl)phenyl]azetidin-1-yl}carbonyl)-7,9-dihydro-8H-purine-8-one hydrochloric acid salt] | 
6 nM | 100% |  |  | Cn1c(=O)n(C(=O)N2CCCC2)c2cnc(/C=C/c3ccccc3)nc21 [Example 1, 9-methyl-2-[(E)-2-phenylethenyl]-7-(pyrrolidin-1-ylcarbonyl)-7,9-dihydro-8H-purine-8-one] | 
33 nM | 98% |  |  | Cn1c(=O)n(C(=O)N2CCCC2)c2cnc(Cc3ccccc3F)nc21 [Example 254, 2-(2-Fluorobenzyl)-9-methyl-7-(pyrrolidin-1-ylcarbonyl)-7,9-dihydro-8H-purine-8-one] | 
39 nM | 74% |  |  | COCc1ncc2c(n1)n(C)c(=O)n2C(=O)N1CC(c2ccc(C)cc2)C1 [compound 452] | 
96 nM | 63% |  |  | Cn1c(=O)n(C(=O)N2CCC2)c2cnc(COc3ccccc3Cl)nc21 [compound 409] | 
101 nM | 50% |  |  | COCc1ncc2c(n1)n(C)c(=O)n2C(=O)N1CC(Oc2ccccc2F)C1 [Example 479, 7-{[3-(2-Fluorophenoxy)azetidin-1-yl]carbonyl}-2-(methoxymethyl)-9-methyl-7,9-dihydro-8H-purine-8-one] | 
 |  | 121% | 10 nM | CCCn1c(=O)n(C(=O)N2CC(c3cccc(F)c3)C2)c2cnc(COC)nc21 [Example 660, 7-{[3-(3-Fluorophenyl)azetidin-1-yl]carbonyl}-2-(methoxymethyl)-9-propyl-7,9-dihydro-8H-purine-8-one] | 
22 nM | 92% |  |  | CCOc1cccc(C2CN(C(=O)n3c(=O)n(C)c4nc(CCCOC)ncc43)C2)c1 [Example 387] | 
 |  | 88% | 24 nM | COCc1ncc2c(n1)n(C1CC1)c(=O)n2C(=O)N1CC(c2ccccc2)C1 [compound 663] | 
75 nM | 57% |  |  | Cc1ccccc1CCc1ncc2c(n1)n(C(=O)N1CCC1)c(=O)n2C [compound 591] | 
10 nM | 105% |  |  | CCOc1ccc(C2CN(C(=O)n3c(=O)n(C)c4nc(COC)ncc43)C2)cc1 [compound 445] | 
99 nM | 69% |  |  | Cn1c(=O)n(C(=O)N2CCC2)c2cnc(COc3ccccc3F)nc21 [compound 408] | 
171 nM | 45% |  |  | Cc1cccc(OCc2ncc3c(n2)n(C)c(=O)n3C(=O)N2CCC2)c1 [compound 411] | 

Continued, compound first:

SMILES | IC50 [1] | inhibition at 0.1 µM [3] | inhibition at 0.1 µM [4] | IC50 [5] | inhibition at 0.1 µM [2]
COc1cccc(-c2ncc3c(n2)n(C)c(=O)n3C(=O)N(C)CCc2ccc(F)cc2)c1 [Example 74, N-[2-(4-Fluorophenyl)ethyl]-2-(3-methoxyphenyl)-N,9-dimethyl-8-oxo-8,9-dihydro-7H-purine-7-carboxamide] | < 1 nM |  |  |  | 104%
Cc1ccc(OCc2ncc3c(n2)n(C(=O)N2CCC2)c(=O)n3C)cc1 [Example 424] | 26 nM | 80% |  |  | 
Cn1c(=O)n(C(=O)N2CCC2)c2nc(COc3ccc(C(F)(F)F)cc3)ncc21 [Example 434] | 8 nM | 95% |  |  | 
Cc1ccc(Cc2ncc3c(n2)n(C(=O)N2CCCC2)c(=O)n3C)cc1 [Example 289, 7-Methyl-2-(4-methylbenzyl)-9-(pyrrolidin-1-ylcarbonyl)-7,9-dihydro-8H-purine-8-one] | 15 nM | 96% |  |  | 
Cn1c(=O)n(C(=O)N2CCCC2)c2cnc(-c3cccc(Cl)c3)nc21 [Example 17] | 8 nM | 101% |  |  | 
CCN(C)C(=O)n1c(=O)n(C)c2cnc(-c3cccc(OC(F)(F)F)c3)nc21 [compound 341] | < 1 nM | 102% |  |  | 
CN(C)C(=O)n1c(=O)n(C)c2cnc(CCc3cccc(F)c3)nc21 [Example 165, 2-[2-(3-Fluorophenyl)ethyl]-N,N,7-trimethyl-8-oxo-7,8-dihydro-9H-purine-9-carboxamide] | 4 nM | 103% |  |  | 
COCCN(C)C(=O)n1c(=O)n(C)c2nc(-c3cccc(OC)c3)ncc21 [Example 59, N-(2-Methoxyethyl)-2-(3-methoxyphenyl)-N,9-dimethyl-8-oxo-8,9-dihydro-7H-purine-7-carboxamide] | 26 nM | 99% |  |  | 
CN(C)C(=O)n1c(=O)n(C)c2cnc(-c3ccc(C(F)F)cc3)nc21 [Example 330, 2-[4-(Difluoromethyl)phenyl]-N,N,7-trimethyl-8-oxo-7,8-dihydro-9H-purine-9-carboxamide] | 95 nM | 62% |  |  | 
COc1cccc(-c2ncc3c(n2)n(C)c(=O)n3C(=O)N2CCN(Cc3cccc(Cl)c3)CC2)c1 [Example 87, 7-{[4-(3-Chlorobenzyl)piperazin-1-yl]carbonyl}-2-(3-methoxyphenyl)-9-methyl-7,9-dihydro-8H-purine-8-one] | 10 nM |  |  |  | 99%
Cn1c(=O)n(C(=O)N2CCCC2)c2nc(-c3ccc(F)nc3)ncc21 [Example 249] | 91 nM | 55% |  |  | 
Cc1cccc(N2CCN(C(=O)n3c(=O)n(C)c4nc(-c5ccccc5)ncc43)CC2)c1 [Example 129, 9-Methyl-7-{[4-(3-methylphenyl)piperazin-1-yl]carbonyl}-2-phenyl-7,9-dihydro-8H-purine-8-one] | 7 nM | 98% |  |  | 
Cc1ncc2c(n1)n(C)c(=O)n2C(=O)N(C)CCc1ccc(Cl)cc1 [Example 157, N-[2-(4-Chlorophenyl)ethyl]-N,2,9-trimethyl-8-oxo-8,9-dihydro-7H-purine-7-carboxamide] | < 10 nM | 103% |  |  | 
Cn1c(=O)n(C(=O)N2CCC2)c2nc(CCc3cccc(OCC(F)(F)F)c3)ncc21 [Example 612, 9-(Azetidin-1-ylcarbonyl)-7-methyl-2-{2-[3-(2,2,2-trifluoroethoxy)phenyl]ethyl}-7,9-dihydro-8H-purine-8-one] |  |  | 96% | 9 nM | 
CN(C)C(=O)n1c(=O)n(C)c2cnc(CCc3ccc(OC4CCC4)cc3)nc21 [compound 531] | 30 nM | 80% |  |  | 
COc1cccc(/C=C/c2ncc3c(n2)n(C(=O)N2CCCC2)c(=O)n3C)c1 [Example 247, 2-[(E)-2-(3-Methoxyphenyl)ethenyl]-7-methyl-9-(pyrrolidin-1-ylcarbonyl)-7,9-dihydro-8H-purine-8-one] | 39 nM | 97% |  |  | 
CCCc1ccc(-c2ncc3c(n2)n(C)c(=O)n3C(=O)N2CCCC2)cc1 [compound 180] | 38 nM | 99% |  |  | 
Cc1ccc(N2CCN(C(=O)n3c(=O)n(C)c4nc(-c5ccccc5)ncc43)CC2)nc1 [Example 56, 9-Methyl-7-{[4-(5-methylpyridin-2-yl)piperazin-1-yl]carbonyl}-2-phenyl-7,9-dihydro-8H-purine-8-one] | 7 nM | 100% |  |  | 
Cn1c(=O)n(C(=O)N2CCCC2)c2nc(/C=C/c3ccc(F)cc3)ncc21 [Example 245, 2-[(E)-2-(4-Fluorophenyl)ethenyl]-7-methyl-9-(pyrrolidin-1-ylcarbonyl)-7,9-dihydro-8H-purine-8-one] | 58 nM | 80% |  |  | 
Cn1c(=O)n(C(=O)N2CCCC2)c2cnc(Cc3c(F)cccc3F)nc21 [Example 268, 2-(2,6-Difluorobenzyl)-9-methyl-7-(pyrrolidin-1-ylcarbonyl)-7,9-dihydro-8H-purine-8-one] | 48 nM | 93% |  |  | 
CN(C)C(=O)n1c(=O)n(C)c2cnc(-c3ccc(OCC(F)(F)F)cc3)nc21 [Example 334, N,N,7-Trimethyl-8-oxo-2-[4-(2,2,2-trifluoroethoxy)phenyl]-7,8-dihydro-9H-purine-9-carboxamide] | 25 nM | 88% |  |  | 
COc1cccc(-c2ncc3c(n2)n(C)c(=O)n3C(=O)N2CCN(c3ccc(C)cc3)CC2)c1 [Example 138, 2-(3-Methoxyphenyl)-9-methyl-7-{[4-(4-methylphenyl)piperazin-1-yl]carbonyl}-7,9-dihydro-8H-purine-8-one] | 6 nM | 99% |  |  | 
CN(C)C(=O)n1c(=O)n(C)c2cnc(CCc3cccc(F)c3F)nc21 [compound 550] | 20 nM | 87% |  |  | 
CCN(C)C(=O)n1c(=O)n(C)c2cnc(-c3cccc(OC(F)F)c3)nc21 [compound 343] | 14 nM | 95% |  |  | 
